Literature values, collected in US20230355730A1, “METHODS FOR TREATING AUTOIMMUNE DISEASE USING BIOCOMPATIBLE BIOABSORBABLE NANOSPHERES” (UTI Limited Partnership, priority 2010, published 2023).

Test system: IGRP206-214-reactive CD8^+ T-cells
Settings: cited from earlier work; for T1D protection: chronic treatment, moderate doses (NRP-A7), high doses (NRP-I4, NRP-V7, IGRP206-214)

| Sequence | T1D protection | avidity maturation of the IGRP206-214-reactive CD8^+ subset (pre-diabetic NOD mice, soluble peptide) |
| --- | --- | --- |
| KYNIANVFL (SEQ ID NO:7) [NRP-I4] | afforded T1D protection | – |
| KYNKANAFL (SEQ ID NO:6) [NRP-A7] | afforded T1D protection | blunted avidity maturation |
| KYNKANVFL (SEQ ID NO:8) [NRP-V7] | only afforded marginal protection | – |
| VYLKTNVFL (SEQ ID NO:4) [IGRP206-214, natural ligand] | only afforded marginal protection | – |
